{"source": "patent US20090202481A1", "about": "“Composition for Sustained Release Delivery of Proteins or Peptides” (priority 2008, published 2009)", "format_in_all_cases": "physicochemical", "key": {"[1]": {"experiment": "In vitro release of octreotide from SAIB/NMP formulations into PBS 7.4 at 37° C.", "settings": "PBS 7.4, 37° C., SAIB/NMP formulation", "procedure": "Formulations were prepared by mixing octreotide acetate (OCT-Ac) and octreotide conjugate (PAL-PEG-BA-OCT) powders with SAIB solution in NMP (90% w/w).\nDue to the physical instability of the formulation containing OCT-Ac, the in vitro release was investigated immediately after the preparation of the formulations. An aliquot of the suspension was used for the in vitro release. About 0.1 mL of each formulation containing octreotide was injected into 3 mL of releasing buffer (PBS 7.4, containing 0.1% sodium azide) in a 4 mL glass vial. The vials were incubated at 37° C. and sampled at various time points. At each time point, 2 mL of release medium was removed and 2 mL of fresh release medium added. The collected samples were analyzed for peptide concentration and integrity by HPLC using an YMC-Pack ODS-120A column. Triplicate samples were used for each formulation."}, "[2]": {"experiment": "Purity of the octreotide in formulations at room temperature over time (HPLC)", "settings": "SAIB/NMP formulation", "procedure": "(§1) Octreotide acetate (OCT-Ac) and octreotide conjugate (PAL-PEG-BA-OCT) powders were dissolved in NMP. Then the solutions containing various forms of octreotide were thoroughly mixed with SAIB solution in NMP (90% w/w).\n(§2) The formulations as prepared above were allowed to stand at room temperature (˜22° C.). At predefined time points, the appearance of the formulations was recorded and an aliquot of each of both the supernatant and bottom composition was collected and analyzed by HPLC for octreotide content. The physical stability of the formulations was determined by direct observation or using the ratio of the content of the octreotide in the supernatant to that in the bottom composition. If the ratio equals to 1.0, the formulation is uniform and stable."}, "[3]": {"experiment": "Physical stability (phase separation, top/bottom ratio) of SAIB/NMP formulations standing at room temperature", "procedure": "as §1, §2"}}, "data": [{"smiles": "C[C@@H](O)[C@@H]1NC(=O)[C@H](CCCCN)NC(=O)[C@@H](Cc2c[nH]c3ccccc23)NC(=O)[C@H](Cc2ccccc2)NC(=O)[C@@H](NC(=O)[C@H](N)Cc2ccccc2)CSSC[C@@H](C(=O)N[C@H](CO)[C@@H](C)O)NC1=O", "note": "[OCT-Ac, Octreotide acetate]", "values": [{"measurement": "Initial burst release (FIG. 2)", "setting": "[1]", "value": "very high initial burst release"}, {"measurement": "Octreotide released", "setting": "[1]; after two weeks", "value": "more than 90%"}, {"measurement": "Octreotide released", "setting": "[1]; within 24 hours", "value": "More than 60%"}, {"measurement": "Octreotide degraded in the bottom phase", "setting": "[2]; after 7 days", "value": "more than 20%"}, {"measurement": "Octreotide degraded in the supernatant", "setting": "[2]; after 7 days", "value": "More than half"}, {"measurement": "Octreotide degraded or reacted", "setting": "[2]; after two hours", "value": "about 4%"}, {"measurement": "Appearance when combined with SAIB/NMP solution", "setting": "[3]; on mixing, about 6% octreotide content", "value": "phase separation occurred immediately"}, {"measurement": "NMP in the bottom phase", "setting": "[3]; room temperature, SAIB/NMP formulation", "value": "slightly more NMP"}, {"measurement": "OCT ratio top/bottom", "setting": "[3]; room temperature, after 5 days", "value": "less than 0.03"}, {"measurement": "Concentration of the octreotide in the bottom phase relative to the upper phase", "setting": "[3]; room temperature, after two days", "value": "about 20 folds"}, {"measurement": "Phase separation of formulation (FIG. 1)", "setting": "[3]; stood at room temperature for 24 h", "value": "apparent phase separation occurred"}]}]}
